Test results as given in the kinase profiling compilation of Christmann-Franck et al. (2016).

How the values were obtained:
Assay in all cases: radiometric filter-binding kinase assay, Kinase HotSpot
Settings in all cases: compound 0.5 µM; ATP 10 µM
CAMKK2 (human) = CAMKK2 (human) (UniProt Q96RR4)
PAK1 (human) = PAK1 (human) (UniProt Q13153)
CAMK1 (human) = CAMK1 (human) (UniProt Q14012)
LIMK1 (human) = LIMK1 (human) (UniProt P53667)
ADRBK1 (human) = ADRBK1 (human) (UniProt P25098)
PKN2 (human) = PKN2 (human) (UniProt Q16513)
CDK5 CDK5R1 p25 (human) = CDK5 CDK5R1 p25 (human) (UniProt Q00535+Q15078)
PTK2 (human) = PTK2 (human) (UniProt Q05397)
PRKACA (human) = PRKACA (human) (UniProt P17612)
INSRR (human) = INSRR (human) (UniProt P14616)
FGFR1 (human) = FGFR1 (human) (UniProt P11362)
MAP3K2 (human) = MAP3K2 (human) (UniProt Q9Y2U5)
STK11 (human) = STK11 (human) (UniProt Q15831)
PRKCB2 (human) = PRKCB2 (human) (UniProt P05771)
DMPK (human) = DMPK (human) (UniProt Q09013)
CLK1 (human) = CLK1 (human) (UniProt P49759)
NEK7 (human) = NEK7 (human) (UniProt Q8TDX7)
SRPK1 (human) = SRPK1 (human) (UniProt Q96SB4)
ERBB2 (human) = ERBB2 (human) (UniProt P04626)
RPS6KA6 KD1 KD2 (human) = RPS6KA6 KD1 KD2 (human) (UniProt Q9UK32)
GSK3A (human) = GSK3A (human) (UniProt P49840)
PRKCH (human) = PRKCH (human) (UniProt P24723)
PHKG2 (human) = PHKG2 (human) (UniProt P15735)
DYRK3 (human) = DYRK3 (human) (UniProt O43781)
ACVR1B (human) = ACVR1B (human) (UniProt P36896)
PHKG1 (human) = PHKG1 (human) (UniProt Q16816)
STK17A (human) = STK17A (human) (UniProt Q9UEE5)
KDR (human) = KDR (human) (UniProt P35968)
MKNK2 (human) = MKNK2 (human) (UniProt Q9HBH9)
FRK (human) = FRK (human) (UniProt P42685)
MAPK13 (human) = MAPK13 (human) (UniProt O15264)
RPS6KA2 KD1 KD2 (human) = RPS6KA2 KD1 KD2 (human) (UniProt Q15349)
DDR2 (human) = DDR2 (human) (UniProt Q16832)
CSNK1E (human) = CSNK1E (human) (UniProt P49674)
PAK7 (human) = PAK7 (human) (UniProt Q9P286)
NEK1 (human) = NEK1 (human) (UniProt Q96PY6)
BRSK1 (human) = BRSK1 (human) (UniProt Q8TDC3)
PTK6 (human) = PTK6 (human) (UniProt Q13882)
CDK1 CCNA2 (human) = CDK1 CCNA2 (human) (UniProt P06493+P20248)
PRKCE (human) = PRKCE (human) (UniProt Q02156)
MYLK2 (human) = MYLK2 (human) (UniProt Q9H1R3)
DYRK1A (human) = DYRK1A (human) (UniProt Q13627)

Chain of FGFR1 (human) (P11362 whole entry, looked up): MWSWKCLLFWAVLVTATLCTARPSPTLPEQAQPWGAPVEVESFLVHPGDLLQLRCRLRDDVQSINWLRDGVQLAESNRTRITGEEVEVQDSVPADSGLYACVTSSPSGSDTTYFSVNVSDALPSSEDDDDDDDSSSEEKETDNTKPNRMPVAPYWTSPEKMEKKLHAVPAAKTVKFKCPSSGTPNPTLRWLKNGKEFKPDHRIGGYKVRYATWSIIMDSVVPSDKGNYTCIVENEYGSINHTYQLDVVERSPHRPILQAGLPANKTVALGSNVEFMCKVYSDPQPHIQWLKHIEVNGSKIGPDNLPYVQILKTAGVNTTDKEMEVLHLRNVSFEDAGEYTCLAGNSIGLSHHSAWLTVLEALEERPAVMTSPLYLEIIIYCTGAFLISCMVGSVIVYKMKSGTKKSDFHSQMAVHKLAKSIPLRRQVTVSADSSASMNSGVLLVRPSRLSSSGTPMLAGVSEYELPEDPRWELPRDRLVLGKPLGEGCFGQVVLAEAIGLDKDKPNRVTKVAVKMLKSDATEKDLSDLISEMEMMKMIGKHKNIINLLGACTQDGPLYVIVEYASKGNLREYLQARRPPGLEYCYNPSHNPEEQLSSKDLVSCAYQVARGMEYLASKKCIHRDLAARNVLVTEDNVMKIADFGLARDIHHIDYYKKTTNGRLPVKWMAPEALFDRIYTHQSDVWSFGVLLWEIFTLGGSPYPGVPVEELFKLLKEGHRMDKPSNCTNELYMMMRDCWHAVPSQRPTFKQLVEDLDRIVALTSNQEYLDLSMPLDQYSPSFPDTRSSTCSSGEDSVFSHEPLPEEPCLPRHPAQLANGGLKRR
Chain of PRKCE (human) (Q02156 whole entry, looked up): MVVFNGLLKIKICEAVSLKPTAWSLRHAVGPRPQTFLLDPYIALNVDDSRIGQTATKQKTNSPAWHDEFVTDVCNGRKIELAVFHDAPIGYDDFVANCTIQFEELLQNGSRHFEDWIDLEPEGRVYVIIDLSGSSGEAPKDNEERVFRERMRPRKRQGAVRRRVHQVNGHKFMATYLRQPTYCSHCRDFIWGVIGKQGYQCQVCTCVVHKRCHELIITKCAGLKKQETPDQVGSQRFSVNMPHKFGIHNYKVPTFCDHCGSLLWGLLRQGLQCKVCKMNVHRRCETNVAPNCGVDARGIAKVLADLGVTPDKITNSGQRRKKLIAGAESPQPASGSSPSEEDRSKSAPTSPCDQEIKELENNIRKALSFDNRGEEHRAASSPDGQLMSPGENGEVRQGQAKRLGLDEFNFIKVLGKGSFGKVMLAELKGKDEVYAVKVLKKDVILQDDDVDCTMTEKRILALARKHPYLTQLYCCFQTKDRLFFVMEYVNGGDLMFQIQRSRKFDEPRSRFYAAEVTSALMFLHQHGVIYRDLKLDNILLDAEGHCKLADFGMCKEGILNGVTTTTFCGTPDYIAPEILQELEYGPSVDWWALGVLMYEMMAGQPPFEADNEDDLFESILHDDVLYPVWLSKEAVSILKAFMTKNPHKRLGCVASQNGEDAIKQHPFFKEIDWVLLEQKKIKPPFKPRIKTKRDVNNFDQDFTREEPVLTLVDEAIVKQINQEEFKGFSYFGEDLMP
Chain of KDR (human) (P35968 whole entry, looked up): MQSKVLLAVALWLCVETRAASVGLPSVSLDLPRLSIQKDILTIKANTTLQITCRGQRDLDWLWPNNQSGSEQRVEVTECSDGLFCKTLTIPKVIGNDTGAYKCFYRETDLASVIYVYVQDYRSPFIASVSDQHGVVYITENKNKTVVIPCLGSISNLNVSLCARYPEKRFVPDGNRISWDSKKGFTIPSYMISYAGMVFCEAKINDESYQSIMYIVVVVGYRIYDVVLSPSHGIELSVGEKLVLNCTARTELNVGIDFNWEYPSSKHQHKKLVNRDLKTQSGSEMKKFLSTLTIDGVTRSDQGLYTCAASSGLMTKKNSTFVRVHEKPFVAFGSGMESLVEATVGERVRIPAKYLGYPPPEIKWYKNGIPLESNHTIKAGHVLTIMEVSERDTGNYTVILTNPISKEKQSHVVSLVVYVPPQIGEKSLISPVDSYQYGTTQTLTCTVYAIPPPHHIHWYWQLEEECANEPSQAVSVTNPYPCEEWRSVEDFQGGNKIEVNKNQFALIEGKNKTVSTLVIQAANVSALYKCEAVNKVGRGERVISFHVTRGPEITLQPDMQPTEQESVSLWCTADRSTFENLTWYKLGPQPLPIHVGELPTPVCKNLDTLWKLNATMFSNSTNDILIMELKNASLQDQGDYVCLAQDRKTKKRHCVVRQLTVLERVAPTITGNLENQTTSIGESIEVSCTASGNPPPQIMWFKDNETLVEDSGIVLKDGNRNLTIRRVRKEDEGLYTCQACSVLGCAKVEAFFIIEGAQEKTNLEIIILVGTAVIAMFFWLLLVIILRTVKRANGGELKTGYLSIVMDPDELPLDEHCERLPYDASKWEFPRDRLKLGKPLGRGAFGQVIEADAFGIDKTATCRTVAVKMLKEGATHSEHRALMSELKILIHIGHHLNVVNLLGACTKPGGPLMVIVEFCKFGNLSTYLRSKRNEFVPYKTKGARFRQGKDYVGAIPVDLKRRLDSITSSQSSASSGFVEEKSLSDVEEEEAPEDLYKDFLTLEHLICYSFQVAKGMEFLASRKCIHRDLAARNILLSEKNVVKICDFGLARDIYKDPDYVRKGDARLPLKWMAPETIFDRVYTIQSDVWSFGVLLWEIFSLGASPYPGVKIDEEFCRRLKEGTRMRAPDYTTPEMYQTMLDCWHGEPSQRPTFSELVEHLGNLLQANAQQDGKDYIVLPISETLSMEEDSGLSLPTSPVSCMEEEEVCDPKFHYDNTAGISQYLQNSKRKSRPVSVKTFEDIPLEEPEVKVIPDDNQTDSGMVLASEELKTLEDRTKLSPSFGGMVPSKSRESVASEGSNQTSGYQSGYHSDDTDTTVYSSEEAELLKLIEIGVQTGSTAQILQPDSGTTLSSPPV
Chain of CDK1 CCNA2 (human) (P06493 whole entry, looked up): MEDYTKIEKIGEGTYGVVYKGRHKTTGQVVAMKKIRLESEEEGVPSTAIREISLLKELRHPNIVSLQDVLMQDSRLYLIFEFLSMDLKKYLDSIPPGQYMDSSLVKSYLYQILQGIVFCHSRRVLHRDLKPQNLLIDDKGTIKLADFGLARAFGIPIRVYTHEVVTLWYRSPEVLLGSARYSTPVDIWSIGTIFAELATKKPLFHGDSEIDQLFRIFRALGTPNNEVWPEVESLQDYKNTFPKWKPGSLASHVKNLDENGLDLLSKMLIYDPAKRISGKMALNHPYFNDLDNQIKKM
Chain of CDK1 CCNA2 (human) (P20248 whole entry, looked up): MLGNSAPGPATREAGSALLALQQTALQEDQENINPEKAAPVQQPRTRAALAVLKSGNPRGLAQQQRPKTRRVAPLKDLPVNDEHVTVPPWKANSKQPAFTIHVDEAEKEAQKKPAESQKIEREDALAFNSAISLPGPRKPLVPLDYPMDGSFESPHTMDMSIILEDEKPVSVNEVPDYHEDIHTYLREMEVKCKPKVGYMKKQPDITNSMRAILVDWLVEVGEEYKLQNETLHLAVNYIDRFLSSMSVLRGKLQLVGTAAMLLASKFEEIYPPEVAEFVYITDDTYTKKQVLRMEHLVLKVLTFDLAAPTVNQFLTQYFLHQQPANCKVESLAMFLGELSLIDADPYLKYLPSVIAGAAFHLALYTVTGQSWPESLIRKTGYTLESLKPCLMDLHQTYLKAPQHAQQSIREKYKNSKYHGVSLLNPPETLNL
Chain of DDR2 (human) (Q16832 whole entry, looked up): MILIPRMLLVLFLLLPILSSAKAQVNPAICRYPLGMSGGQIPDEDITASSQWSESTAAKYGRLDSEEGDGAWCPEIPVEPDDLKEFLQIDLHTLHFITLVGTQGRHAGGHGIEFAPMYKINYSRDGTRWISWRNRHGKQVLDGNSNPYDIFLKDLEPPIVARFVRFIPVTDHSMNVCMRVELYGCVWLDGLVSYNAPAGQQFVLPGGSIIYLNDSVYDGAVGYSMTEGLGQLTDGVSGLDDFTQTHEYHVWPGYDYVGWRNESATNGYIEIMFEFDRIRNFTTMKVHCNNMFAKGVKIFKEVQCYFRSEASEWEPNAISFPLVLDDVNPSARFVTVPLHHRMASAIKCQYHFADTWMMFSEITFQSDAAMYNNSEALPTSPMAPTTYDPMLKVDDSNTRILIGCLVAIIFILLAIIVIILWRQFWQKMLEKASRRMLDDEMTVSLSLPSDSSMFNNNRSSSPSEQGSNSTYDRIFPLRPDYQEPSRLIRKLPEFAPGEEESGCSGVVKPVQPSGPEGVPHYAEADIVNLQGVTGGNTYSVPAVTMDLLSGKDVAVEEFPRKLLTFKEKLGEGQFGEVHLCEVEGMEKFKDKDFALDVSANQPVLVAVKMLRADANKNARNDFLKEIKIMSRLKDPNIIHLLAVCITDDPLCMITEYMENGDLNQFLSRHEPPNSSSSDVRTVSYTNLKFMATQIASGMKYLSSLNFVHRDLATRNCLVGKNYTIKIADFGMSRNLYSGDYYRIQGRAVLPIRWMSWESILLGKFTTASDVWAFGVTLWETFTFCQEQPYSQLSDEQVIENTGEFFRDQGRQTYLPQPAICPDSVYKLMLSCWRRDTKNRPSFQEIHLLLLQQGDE
Chain of ACVR1B (human) (P36896 whole entry, looked up): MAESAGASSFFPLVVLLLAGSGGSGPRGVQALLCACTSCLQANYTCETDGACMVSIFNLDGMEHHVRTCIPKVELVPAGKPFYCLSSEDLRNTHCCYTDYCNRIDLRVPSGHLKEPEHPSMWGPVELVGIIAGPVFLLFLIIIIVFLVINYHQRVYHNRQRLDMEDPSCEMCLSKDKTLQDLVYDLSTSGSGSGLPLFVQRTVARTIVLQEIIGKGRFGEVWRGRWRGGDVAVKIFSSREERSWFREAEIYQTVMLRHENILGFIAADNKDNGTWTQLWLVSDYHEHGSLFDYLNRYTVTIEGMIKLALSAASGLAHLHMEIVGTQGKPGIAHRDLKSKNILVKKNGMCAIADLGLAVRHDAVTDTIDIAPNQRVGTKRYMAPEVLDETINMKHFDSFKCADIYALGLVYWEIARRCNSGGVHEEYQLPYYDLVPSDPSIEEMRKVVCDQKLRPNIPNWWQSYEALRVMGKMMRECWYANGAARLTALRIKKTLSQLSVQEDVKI

`O=C1NC(=O)/C(=C/c2ccc3c(c2)OC(F)(F)O3)S1` was tested, and the residual activity (CAMKK2 (human)) was 82.9%, the residual activity (PAK1 (human)) was 93.3% and the residual activity (CAMK1 (human)) was 89.9%. For the same compound, the residual activity (LIMK1 (human)) was 96.4%, the residual activity (ADRBK1 (human)) was 103% and the residual activity (PKN2 (human)) was 113%. For the same compound, the residual activity (CDK5 CDK5R1 p25 (human)) was 89.7%, the residual activity (PTK2 (human)) was 94.9% and the residual activity (PRKACA (human)) was 101%. It also gave a residual activity (INSRR (human)) of 110%, a residual activity (FGFR1 (human)) of 94.3% and a residual activity (MAP3K2 (human)) of 94%. The residual activity (STK11 (human)) was 96.9%, the residual activity (PRKCB2 (human)) was 97.6% and the residual activity (DMPK (human)) was 97.5%. The residual activity (CLK1 (human)) was 102%, the residual activity (NEK7 (human)) was 105% and the residual activity (SRPK1 (human)) was 105%. It also gave a residual activity (ERBB2 (human)) of 102%, a residual activity (RPS6KA6 KD1 KD2 (human)) of 96.5% and a residual activity (GSK3A (human)) of 88.1%. For the same compound, the residual activity (PRKCH (human)) was 92.7%, the residual activity (PHKG2 (human)) was 95.2% and the residual activity (DYRK3 (human)) was 100%. For the same compound, the residual activity (ACVR1B (human)) was 99.4%, the residual activity (PHKG1 (human)) was 94.2% and the residual activity (STK17A (human)) was 90.4%. For the same compound, the residual activity (KDR (human)) was 94.6%, the residual activity (MKNK2 (human)) was 98.3% and the residual activity (FRK (human)) was 93.4%. The residual activity (MAPK13 (human)) was 101%, the residual activity (RPS6KA2 KD1 KD2 (human)) was 97.3% and the residual activity (DDR2 (human)) was 90.1%. For the same compound, the residual activity (CSNK1E (human)) was 96.9%, the residual activity (PAK7 (human)) was 93% and the residual activity (NEK1 (human)) was 79.6%. The residual activity (BRSK1 (human)) was 88%, the residual activity (PTK6 (human)) was 94.8% and the residual activity (CDK1 CCNA2 (human)) was 97.2%. It also gave a residual activity (PRKCE (human)) of 103%, a residual activity (MYLK2 (human)) of 96.6% and a residual activity (DYRK1A (human)) of 84.6%.

In the case of `CC#CC(=O)Nc1cc2c(Nc3ccc(F)c(Cl)c3)ncnc2cn1`, the residual activity (CAMKK2 (human)) is reported as 103%, the residual activity (PAK1 (human)) is reported as 94.5% and the residual activity (CAMK1 (human)) is reported as 97.9%. The residual activity (LIMK1 (human)) was 84.2%, the residual activity (ADRBK1 (human)) was 98.3% and the residual activity (PKN2 (human)) was 95%. The residual activity (CDK5 CDK5R1 p25 (human)) was 99.2%, the residual activity (PTK2 (human)) was 102% and the residual activity (PRKACA (human)) was 97.7%. It also gave a residual activity (INSRR (human)) of 101%, a residual activity (FGFR1 (human)) of 91.1% and a residual activity (MAP3K2 (human)) of 107%. The residual activity (STK11 (human)) was 99.6%, the residual activity (PRKCB2 (human)) was 99.5% and the residual activity (DMPK (human)) was 104%. The residual activity (CLK1 (human)) was 82.5%, the residual activity (NEK7 (human)) was 98.2% and the residual activity (SRPK1 (human)) was 94.8%. The residual activity (ERBB2 (human)) was 2.36%, the residual activity (RPS6KA6 KD1 KD2 (human)) was 95.3% and the residual activity (GSK3A (human)) was 104%. The residual activity (PRKCH (human)) was 90.4%, the residual activity (PHKG2 (human)) was 99% and the residual activity (DYRK3 (human)) was 101%. For the same compound, the residual activity (ACVR1B (human)) was 104%, the residual activity (PHKG1 (human)) was 103% and the residual activity (STK17A (human)) was 92.9%. It also gave a residual activity (KDR (human)) of 98.2%, a residual activity (MKNK2 (human)) of 66% and a residual activity (FRK (human)) of 102%. For the same compound, the residual activity (MAPK13 (human)) was 105%, the residual activity (RPS6KA2 KD1 KD2 (human)) was 105% and the residual activity (DDR2 (human)) was 108%. For the same compound, the residual activity (CSNK1E (human)) was 93.6%, the residual activity (PAK7 (human)) was 102% and the residual activity (NEK1 (human)) was 105%. For the same compound, the residual activity (BRSK1 (human)) was 102%, the residual activity (PTK6 (human)) was 56.8% and the residual activity (CDK1 CCNA2 (human)) was 96.5%. For the same compound, the residual activity (PRKCE (human)) was 88.3%, the residual activity (MYLK2 (human)) was 99.9% and the residual activity (DYRK1A (human)) was 96.4%.

`CCN(CC)CCNC(=O)c1c(C)[nH]c(/C=C2\C(=O)Nc3ccc(Cl)cc32)c1C` was tested, and the residual activity (CAMKK2 (human)) was 48%, the residual activity (PAK1 (human)) was 93.4% and the residual activity (CAMK1 (human)) was 75.9%. For the same compound, the residual activity (LIMK1 (human)) was 98.4%, the residual activity (ADRBK1 (human)) was 104% and the residual activity (PKN2 (human)) was 84.4%. The residual activity (CDK5 CDK5R1 p25 (human)) was 95.1%, the residual activity (PTK2 (human)) was 25.8% and the residual activity (PRKACA (human)) was 90%. The residual activity (INSRR (human)) was 4.33%, the residual activity (FGFR1 (human)) was 20.3% and the residual activity (MAP3K2 (human)) was 20.1%. The residual activity (STK11 (human)) was 80.7%, the residual activity (PRKCB2 (human)) was 110% and the residual activity (DMPK (human)) was 102%. The residual activity (CLK1 (human)) was 34.2%, the residual activity (NEK7 (human)) was 99.3% and the residual activity (SRPK1 (human)) was 95.9%. For the same compound, the residual activity (ERBB2 (human)) was 102%, the residual activity (RPS6KA6 KD1 KD2 (human)) was 10.5% and the residual activity (GSK3A (human)) was 88.3%. The residual activity (PRKCH (human)) was 86.1%, the residual activity (PHKG2 (human)) was 16.6% and the residual activity (DYRK3 (human)) was 81.8%. For the same compound, the residual activity (ACVR1B (human)) was 103%, the residual activity (PHKG1 (human)) was 3.19% and the residual activity (STK17A (human)) was 16.1%. The residual activity (KDR (human)) was 13.8%, the residual activity (MKNK2 (human)) was 88.8% and the residual activity (FRK (human)) was 59.3%. The residual activity (MAPK13 (human)) was 104%, the residual activity (RPS6KA2 KD1 KD2 (human)) was 10% and the residual activity (DDR2 (human)) was 104%. The residual activity (CSNK1E (human)) was 46.7%, the residual activity (PAK7 (human)) was 58.9% and the residual activity (NEK1 (human)) was 94.7%. For the same compound, the residual activity (BRSK1 (human)) was 36.5%, the residual activity (PTK6 (human)) was 51.3% and the residual activity (CDK1 CCNA2 (human)) was 87.5%. For the same compound, the residual activity (PRKCE (human)) was 102%, the residual activity (MYLK2 (human)) was 10% and the residual activity (DYRK1A (human)) was 47.2%.

With `COc1ccc(COc2ccc(Cc3cnc(N)nc3N)cc2OC)cc1` the residual activity (CAMKK2 (human)) was 103%, the residual activity (PAK1 (human)) was 93.4% and the residual activity (CAMK1 (human)) was 103%. For the same compound, the residual activity (LIMK1 (human)) was 94.5%, the residual activity (ADRBK1 (human)) was 96.1% and the residual activity (PKN2 (human)) was 90.9%. The residual activity (CDK5 CDK5R1 p25 (human)) was 103%, the residual activity (PTK2 (human)) was 95.5% and the residual activity (PRKACA (human)) was 104%. The residual activity (INSRR (human)) was 99.4%, the residual activity (FGFR1 (human)) was 108% and the residual activity (MAP3K2 (human)) was 108%. For the same compound, the residual activity (STK11 (human)) was 103%, the residual activity (PRKCB2 (human)) was 110% and the residual activity (DMPK (human)) was 101%. The residual activity (CLK1 (human)) was 103%, the residual activity (NEK7 (human)) was 100% and the residual activity (SRPK1 (human)) was 90.4%. For the same compound, the residual activity (ERBB2 (human)) was 106%, the residual activity (RPS6KA6 KD1 KD2 (human)) was 101% and the residual activity (GSK3A (human)) was 108%. The residual activity (PRKCH (human)) was 88.6%, the residual activity (PHKG2 (human)) was 106% and the residual activity (DYRK3 (human)) was 108%. The residual activity (ACVR1B (human)) was 97.8%, the residual activity (PHKG1 (human)) was 95.3% and the residual activity (STK17A (human)) was 102%. For the same compound, the residual activity (KDR (human)) was 109%, the residual activity (MKNK2 (human)) was 90.6% and the residual activity (MAPK13 (human)) was 96%. The residual activity (RPS6KA2 KD1 KD2 (human)) was 105%, the residual activity (DDR2 (human)) was 99.6% and the residual activity (CSNK1E (human)) was 97.1%. For the same compound, the residual activity (PAK7 (human)) was 103%, the residual activity (NEK1 (human)) was 95.6% and the residual activity (BRSK1 (human)) was 95.6%. For the same compound, the residual activity (PTK6 (human)) was 96.1%, the residual activity (CDK1 CCNA2 (human)) was 98.7% and the residual activity (PRKCE (human)) was 95.7%. The residual activity (MYLK2 (human)) was 104% and the residual activity (DYRK1A (human)) was 88.1%.
